In US20240400553A1, “AMINE BASED MATRIPTASE 2 INHIBITORS AND USES THEREOF” (Disc Medicine, Inc., priority 2023, published 2024) one finds Ki data, which are given here for 24 compounds.

pKi: −log10 of the molar value.

The target in the first experiment is T1, Human Recombinant Matriptase 2 (Homo sapiens, UniProt Q8IU80).
T1 construct: made in house
T1 sequence (Q8IU80 1-811): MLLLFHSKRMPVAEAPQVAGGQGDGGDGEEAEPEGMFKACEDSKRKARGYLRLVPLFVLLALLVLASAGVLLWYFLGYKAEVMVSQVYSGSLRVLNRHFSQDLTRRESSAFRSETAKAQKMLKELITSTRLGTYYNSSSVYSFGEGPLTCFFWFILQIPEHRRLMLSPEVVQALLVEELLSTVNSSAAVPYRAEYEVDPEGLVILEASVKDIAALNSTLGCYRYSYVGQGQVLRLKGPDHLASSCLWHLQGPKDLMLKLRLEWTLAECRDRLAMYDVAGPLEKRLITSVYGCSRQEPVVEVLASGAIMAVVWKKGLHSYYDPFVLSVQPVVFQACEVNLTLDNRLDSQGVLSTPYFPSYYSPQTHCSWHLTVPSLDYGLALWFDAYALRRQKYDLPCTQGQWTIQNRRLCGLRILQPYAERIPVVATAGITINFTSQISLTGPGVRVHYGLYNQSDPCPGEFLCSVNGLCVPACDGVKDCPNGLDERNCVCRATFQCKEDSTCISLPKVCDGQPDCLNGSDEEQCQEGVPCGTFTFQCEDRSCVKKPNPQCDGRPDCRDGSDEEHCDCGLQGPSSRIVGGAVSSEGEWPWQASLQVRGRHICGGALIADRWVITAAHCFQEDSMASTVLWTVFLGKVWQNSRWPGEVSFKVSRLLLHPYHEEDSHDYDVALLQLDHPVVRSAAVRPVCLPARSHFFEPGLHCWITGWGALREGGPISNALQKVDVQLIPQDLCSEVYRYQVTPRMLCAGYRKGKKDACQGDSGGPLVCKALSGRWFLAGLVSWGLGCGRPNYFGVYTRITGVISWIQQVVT
The experiment in a line: Matriptase 2 inhibition, fluorescence based assay (Method I). To be noted: Table A; Ki of Matriptase-2; read-out: Mat-2 Ki. The experiment is classed as biochemical. The method, boiled down:
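In-house recombinant enzyme (3.5 nM), preincubated 30 min with compound, then Boc-Gln-Ala-Arg-AMC substrate (62 μM) in 50 mM Tris pH 7.5, 150 mM NaCl, 0.01% gelatin, 1% DMSO, 25 °C. Fluorescence (Ex 360/Em 480 nm) read 60 min after substrate; IC50 from variable-slope sigmoidal fit of % inhibition.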
In general, pKi refers to the negative decadic logarithm of the Ki, by convention in mol/L. In the case of `NCc1ccc2cc(C(=O)OCc3cncn3CC(F)(F)F)n(Cc3cc(NS(=O)(=O)Cc4ccccc4)cc4ccccc34)c2n1` [Compound 103, [1-(2,2,2-trifluoroethyl)-1H-imidazol-5-yl]methyl 6-(aminomethyl)-1-{[3-(phenylmethanesulfon-amido)naphthalen-1-yl]-methyl}-1H-pyrrolo[2,3-b]pyridine-2-carboxylate], the pKi is 6.30 to 7.00.
As for `Cn1ccnc1COC(=O)c1cc2ccc(CN)nc2n1Cc1cc(NS(=O)(=O)Cc2ccsc2)cc2ccccc12` [Compound 157, (1-methyl-1H-imidazol-2-yl)methyl 6-amino-methyl)-1-({3-[(thio-phen-3-yl)methanesul-fonamido]naphthalen-1-yl}methyl)-1H-pyrrolo-[2,3-b]pyridine-2-car-boxylate], the pKi is not below 7.00.
Still for that read-out and setting: the result for `NCc1ccc2cc(C(=O)OCC3CC3)n(Cc3cc(NS(=O)(=O)Cc4ccccc4)cc4ccccc34)c2n1` [Compound 120, cyclopropylmethyl 6-(aminomethyl)-1-{[3-(phenylmethanesulfon-amido)naphthalen-1-yl]-methyl}-1H-pyrrolo[2,3-b]pyridine-2-carboxylate] reads 5.52 to 6.30.
Turning to `CC(=O)N(C)CCOC(=O)c1cc2ccc(CN)nc2n1Cc1cc(NS(=O)(=O)Cc2ccsc2)cc2ccccc12` [Compound 171, 2-(N-methylacetamido)-ethyl 6-(aminomethyl)-1-({3-[(thiophen-3-yl)-methanesulfonamido]-naphthalen-1-yl}meth-yl)-1H-pyrrolo[2,3-b]-pyridine-2-carboxylate], the pKi was not below 7.00.
Still for that read-out and setting: next, `Cc1cccc(C)c1CS(=O)(=O)Nc1cc(Cn2c(C(=O)OCCCN3CCOCC3)cc3ccc(CN)nc32)c2ccccc2c1` [Compound 190, 3-(morpholin-4-yl)prop-yl 6-(aminomethyl)-1-({3-[(2,6-dimethylphen-yl)methanesulfonamido]-naphthalen-1-yl}meth-yl)-1H-pyrrolo[2,3-b]-pyridine-2-carboxylate]: not below 7.00.
As for `CN1CCC(CCOC(=O)c2cc3ccc(CN)nc3n2Cc2cc(NS(=O)(=O)Cc3ccccc3)cc3ccccc23)CC1` [Compound 39, 2-(1-methylpiperidin-4-yl)ethyl 6-(aminometh-yl)-1-{[3-(phenylmeth-anesulfonamido)naph-thalen-1-yl]methyl}-1H-pyrrolo[2,3-b]pyridine-2-carboxylate], the pKi is not below 7.00.
Same read-out and setting: next, `NCc1ccc2cc(C(=O)O)n(Cc3cc(NS(=O)(=O)Cc4ccsc4)cc4ccccc34)c2n1` [Compound 4]: not below 7.00.
Regarding `CCOC(=O)c1cc2ccc(CN)nc2n1Cc1cc(NS(=O)(=O)Cc2cccs2)cc2ccccc12` [Compound 154, ethyl 6-(aminomethyl)-1-({3-[(thiophen-2-yl)-methanesulfonamido]-naphthalen-1-yl}methyl)-1H-pyrrolo[2,3-b]pyr-idine-2-carboxylate], the pKi is 6.30 to 7.00.
Regarding `NCc1ccc2cc(C(=O)OCCn3ccnn3)n(Cc3cc(NS(=O)(=O)Cc4ccccc4)cc4ccccc34)c2n1` [Compound 92, 2-(1H-1,2,3-triazol-1-yl-ethyl 6-(aminomethyl)-1-{[3-(phenylmethane-sulfonamido)naphthalen-1-yl]methyl}-1H-pyrrolo-[2,3-b]pyridine-2-carbox-ylate], the pKi is 6.30 to 7.00.
`NCc1ccc2cc(C(=O)OCCN3CCNCC3)n(Cc3cc(NS(=O)(=O)Cc4ccsc4)cc4ccccc34)c2n1` [Compound 156, 2-(piperazin-1-yl)ethyl 6-(aminomethyl)-1-({3-[(thiophen-3-yl)methane-sulfonamidoJnaphthalen-1-yl}methyl)-1H-pyr-rolo[2,3-b]pyridine-2-carboxylate]: the pKi was not below 7.00.
On to `NCc1ccc2cc(C(=O)OCC3CCN(CC4CC4)CC3)n(Cc3cc(NS(=O)(=O)Cc4ccccc4)cc4ccccc34)c2n1` [Compound 21, [1-(cyclopropylmeth-yl)piperidin-4-yl]methyl 6-(aminomethyl)-1-{[3-(phenylmethanesulfon-amido)naphthalen-1-yl]-methyl}-1H-pyrrolo[2,3-b]pyridine-2-carboxylate], for which the pKi was not below 7.00.
Take `CN1CCCC[C@@H]1COC(=O)c1cc2ccc(CN)nc2n1Cc1cc(NS(=O)(=O)Cc2ccccc2)cc2ccccc12` (racemic) [Compound 63, (1-methylpiperidin-2-yl)methyl 6-(aminometh-yl)-1-{[3-(phenylmeth-anesulfonamido)naph-thalen-1-yl]lmethyl}-1H-pyrrolo[2,3-b]pyridine-2-carboxylate]: the negative logarithm of the Ki (pKi) is not below 7.00.

Staying with this experiment, now noted: Table A; Ki of Matriptase-2 given as class symbols; read-out: Mat-2 Ki.
With `CC(C)(C)S(=O)(=O)N1CCC(CNC(=O)Nc2cc(Cn3c(C(=O)O)cc4ccc(CN)cc43)c3ccccc3c2)CC1` [Compound 396, 6-(aminomethyl)-1-({3-[({[1-(2-methylpropane-2-sulfonyl)piperidin-4-yl]methyl}carbamoyl)-amino]naphthalen-1-yl}-methyl)-1H-indole-2-carboxylic acid], the pKi is 6.30 to 7.00.
The same measure, in the same setting: the result for `NCc1ccc2cc(C(=O)O)n(Cc3cc(NS(=O)(=O)CCN4CCNCC4)cc4ccccc34)c2n1` [Compound 214, 6-(aminomethyl)-1-({3-[2-(piperazin-1-yl)-ethanesulfonamido]-naphthalen-1-yl}meth-yl)-1H-pyrrolo[2,3-b]-pyridine-2-carboxylic acid] reads not below 7.00.
For the compound `CN1CCC(COC(=O)c2cc3ccc(CN)nc3n2Cc2cc(NS(=O)(=O)Cc3ccc(F)cc3)cc3ccccc23)CC1` [Compound 206, (1-methylpiperidin-4-yl)-methyl 6-(aminomethyl)-1-({3-[(4-fluorophenyl)-methanesulfonamido]-naphthalen-1-yl}meth-yl)-1H-pyrrolo[2,3-b]-pyridine-2-carboxylate], the pKi was not below 7.00.
Still for that read-out and setting: the result for `NCc1ccc2cc(-c3nnn[nH]3)n(Cc3cc(NS(=O)(=O)Cc4ccccc4)cc4ccccc34)c2n1` [Compound 366, N-(4-((6-(aminomethyl)-2-(1H-tetrazol-5-yl)-1H-pyrrolo[2,3-b]pyridin-1-yl)methyl)naphthalen-2-yl)-1-phenylmethanesulfonamide] reads not below 7.00; that for `NCc1ccc2cc(C(=O)O)n(Cc3cc(NS(=O)(=O)Cc4ccncc4)cc4ccccc34)c2n1` [Compound 245, 6-(aminomethyl)-1-({3-[(pyridin-4-yl)methane-sulfonamido]naphthalen-1-yl}methyl)-1H-pyr-rolo[2,3-b]pyridine-2-carboxylic acid], 6.30 to 7.00; that for `Cc1cccc(CS(=O)(=O)Nc2cc(Cn3c(C(=O)O)cc4ccc(CN)nc43)c3ccccc3c2)c1` [Compound 238, 6-(aminomethyl)-1-({3-[(3-methylphenyl)meth-anesulfonamido]naph-thalen-1-yl}methyl)-1H-pyrrolo[2,3-b]pyridine-2-carboxylic acid], 6.30 to 7.00.
Same read-out and setting: next, `CC(C)(C)S(=O)(=O)N1CCC(CS(=O)(=O)Nc2cc(Cn3c(C(=O)O)cc4ccc(CN)nc43)c3ccccc3c2)CC1` [Compound 267, 6-(aminomethyl)-1-[(3-{[1-(2-methylpropane-2-sulfonyl)piperidin-4-yl]-methanesulfonamido}-naphthalen-1-yl)methyl]-1H-pyrrolo[2,3-b]pyr-idine-2-carboxylic acid]: 6.30 to 7.00; `CN1CCC(COC(=O)c2cc3ccc(CN)cc3n2Cc2cc(NS(=O)(=O)Cc3ccccc3)cc3ccccc23)CC1` [Compound 376, (1-methylpiperidin-4-yl)-methyl 6-(aminomethyl)-1-1{[3-(phenylmethane-sulfonamido)naphthalen-1-yl]methyl}-1H-indole-2-carboxylate]: not below 7.00; `CN1CCC(Cc2nnc(-c3cc4ccc(CN)nc4n3Cc3cc(NS(=O)(=O)Cc4ccccc4)cc4ccccc34)o2)CC1` [Compound 346, N-(4-{[6-(aminomethyl)-2-{5-[(1-methylpiperidin-4-yl)methyl]-1,3,4-oxa-diazol-2-yl}-1H-pyrrolo-[2,3-b]pyridin-1-yl]meth-yl}naphthalen-2-yl)-1-phenylmethanesulfon-amide]: 6.30 to 7.00.
Still for that read-out and setting: the result for `NCc1ccc2cc(C(=O)O)n(Cc3cc(NS(=O)(=O)C[C@H]4CNCCO4)cc4ccccc34)c2c1` (racemic) [Compound 391, 6-(aminomethyl)-1-({3-[(morpholin-2-l)methane-sulfonamido]naphthalen-1-yl}methyl)-1H-indole-2-carboxylic acid] reads 6.30 to 7.00.

Staying with this experiment, now noted: Table B; Human Recombinant Matriptase 2, 3.5 nM enzyme, 62 μM substrate, 30 mins preincubation; read-out: Mean Ki.
For the compound `CN1CCC(C(OC(=O)c2cc3ccc(CN)nc3n2Cc2cc(NS(=O)(=O)Cc3ccccc3)cc3ccccc23)C2CC2)CC1` (stereo not drawn) [Compound 2.33], the pKi is not below 7.00.
On the same count and under the same terms, next, `CNC12CC(COC(=O)c3cc4ccc(CN)nc4n3Cc3cc(NS(=O)(=O)Cc4c(C)cccc4C)cc4c3CCCC4)(C1)C2` [Compound 2.38]: not below 7.00.
